Reference: patent US9617267B2, “Compounds and methods for kinase modulation, and indications therefor” (Plexxikon Inc., priority 2009, dated 2017)

Assay: Relative solubility by turbidity threshold concentration in aqueous buffers (pH 1.5, 4.5, 6.8, 7.4)
Format: physicochemical
Settings: for turbidity threshold (L, M, H) 1.4: pH 1.4 [sic] (method: SGF pH 1.5); for turbidity threshold (L, M, H) 4.5: pH 4.5 (SIF); for turbidity threshold (L, M, H) 6.8: pH 6.8 (SIF); for turbidity threshold (L, M, H) 7.4: pH 7.4 (HEPES)
Procedure: As an indication of relative solubility, the turbidity of compounds in aqueous solutions is assessed. To assess possible compound properties in different physiological compartments, such as stomach, intestine, and blood, a series of aqueous buffers with varying pH is used. Thus each compound is diluted into four different physiologically relevant buffers and solution turbidity is measured by spectrophotometry.
Compounds are dissolved at a concentration of 25 mM in dimethyl sulfoxide, then serially diluted 1:1 into a 96 well plate, diluting 10 times in pure dimethyl sulfoxide, with the final well of each row a dimethyl sulfoxide blank. In an assay plate, 99 μL of appropriate buffer is added to each well, and 1 μL of each sample dilution is added to the buffer, achieving a range of final total concentrations in aqueous solutions having different pH. The buffers used are Simulated Gastric Fluid (SGF-pH 1.5) 0.5M NaCl, pH 1.5; Simulated Intestinal fluid (SIF-pH 4.5 and pH 6.8) 0.05M NaH2PO4, pH 4.5 and 6.8; and Hepes Buffer (HEPES-pH 7.4) 10 mM HEPES, 150 mM NaCl, pH 7.4. Control compounds pyrene, estriol and propranolol HCl are also assessed. Plates are spun and then mixed for 1 minute, and the absorbance is read using a Tecan Safire II to read wavelengths in the visible range (490, 535, and 650 nm) at four locations per well, reflecting the degree of turbidity present. The average optical density for each wavelength in each well is graphed vs. compound concentration, and the concentration at which the curve crosses a threshold O.D. of 0.01 for each wavelength is reported as the endpoint turbidity assay result. The average of the three wavelengths is used to compare turbidity of compounds. Compounds are considered to have low solubility if the threshold concentration is <31.3 μM, moderate solubility if the threshold concentration is 31.3 μM to 250 μM, and high solubility if the threshold concentration is >250 μm.
The following table indicates the relative solubility (L=low, M=moderate, H=high) based on turbidity threshold concentration at each pH for exemplary compounds according to the invention as indicated: […]

Question: With `CCCS(=O)(=O)Nc1ccc(F)c(C(=O)c2c[nH]c3ncnc(Nc4ccncc4)c23)c1F` [P-1076, Propane-1-sulfonic acid {2,4-difluoro-3-[4-(pyridin-4-ylamino)-7H-pyrrolo[2,3-d]pyrimidine-5-carbonyl]-phenyl}-amide] as the compound, how does the “turbidity threshold (L, M, H) 1.4” value read?
Answer: H (high solubility if the threshold concentration is >250 μm)

Question: What about the “turbidity threshold (L, M, H) 4.5” value of the same compound?
Answer: H (high solubility if the threshold concentration is >250 μm)

Question: What about the “turbidity threshold (L, M, H) 6.8” value of the same compound?
Answer: H (high solubility if the threshold concentration is >250 μm)

Question: And the “turbidity threshold (L, M, H) 7.4” value?
Answer: H (high solubility if the threshold concentration is >250 μm)

Question: With `CCCS(=O)(=O)Nc1ccc(F)c(C(=O)c2c[nH]c3ncnc(Nc4cccc(OC)c4)c23)c1F` [P-1085, Propane-1-sulfonic acid {2,4-difluoro-3-[4-(3-methoxy-phenylamino)-7H-pyrrolo[2,3-d]pyrimidine-5-carbonyl]-phenyl}-amide] as the compound, how does the “turbidity threshold (L, M, H) 1.4” value read?
Answer: L (low solubility if the threshold concentration is <31.3 μM)

Question: And the “turbidity threshold (L, M, H) 4.5” value?
Answer: L (low solubility if the threshold concentration is <31.3 μM)

Question: What about the “turbidity threshold (L, M, H) 6.8” value of the same compound?
Answer: L (low solubility if the threshold concentration is <31.3 μM)

Question: And the “turbidity threshold (L, M, H) 7.4” value?
Answer: L (low solubility if the threshold concentration is <31.3 μM)

Question: With `CCCS(=O)(=O)Nc1ccc(F)c(C(=O)c2c[nH]c3ncnc(Nc4cnn(CC)c4)c23)c1F` [P-1099, Propane-1-sulfonic acid {3-[4-(1-ethyl-1H-pyrazol-4-ylamino)-7H-pyrrolo[2,3-d]pyrimidine-5-carbonyl]-2,4-difluoro-phenyl}-amide] as the compound, how does the “turbidity threshold (L, M, H) 1.4” value read?
Answer: M (moderate solubility if the threshold concentration is 31.3 μM to 250 μM)

Question: What about the “turbidity threshold (L, M, H) 4.5” value of the same compound?
Answer: L (low solubility if the threshold concentration is <31.3 μM)

Question: And the “turbidity threshold (L, M, H) 6.8” value?
Answer: M (moderate solubility if the threshold concentration is 31.3 μM to 250 μM)

Question: What about the “turbidity threshold (L, M, H) 7.4” value of the same compound?
Answer: M (moderate solubility if the threshold concentration is 31.3 μM to 250 μM)

Question: Which “turbidity threshold (L, M, H) 1.4” value does the source give for `CCCS(=O)(=O)Nc1ccc(F)c(C(=O)c2c[nH]c3ncnc(NCC(C)C)c23)c1F` [P-1088, Propane-1-sulfonic acid [2,4-difluoro-3-(4-isobutylamino-7H-pyrrolo[2,3-d]pyrimidine-5-carbonyl)-phenyl]-amide] here?
Answer: M (moderate solubility if the threshold concentration is 31.3 μM to 250 μM)

Question: And the “turbidity threshold (L, M, H) 4.5” value?
Answer: L (low solubility if the threshold concentration is <31.3 μM)

Question: What about the “turbidity threshold (L, M, H) 6.8” value of the same compound?
Answer: L (low solubility if the threshold concentration is <31.3 μM)

Question: What about the “turbidity threshold (L, M, H) 7.4” value of the same compound?
Answer: L (low solubility if the threshold concentration is <31.3 μM)

Question: Which “turbidity threshold (L, M, H) 1.4” value does the source give for `CCCS(=O)(=O)Nc1ccc(F)c(C(=O)c2c[nH]c3ncnc(Nc4ccc(Cl)cc4)c23)c1F` [P-1087, Propane-1-sulfonic acid {3-[4-(4-chloro-phenylamino)-7H-pyrrolo[2,3-d]pyrimidine-5-carbonyl]-2,4-difluoro-phenyl}-amide] here?
Answer: M (moderate solubility if the threshold concentration is 31.3 μM to 250 μM)

Question: What about the “turbidity threshold (L, M, H) 4.5” value of the same compound?
Answer: L (low solubility if the threshold concentration is <31.3 μM)

Question: What about the “turbidity threshold (L, M, H) 6.8” value of the same compound?
Answer: M (moderate solubility if the threshold concentration is 31.3 μM to 250 μM)

Question: What about the “turbidity threshold (L, M, H) 7.4” value of the same compound?
Answer: M (moderate solubility if the threshold concentration is 31.3 μM to 250 μM)

Question: For `CCCS(=O)(=O)Nc1ccc(F)c(C(=O)c2c[nH]c3ncnc(Nc4cccc(F)c4)c23)c1F` [P-1094, Propane-1-sulfonic acid {2,4-difluoro-3-[4-(3-fluoro-phenylamino)-7H-pyrrolo[2,3-d]pyrimidine-5-carbonyl]-phenyl}-amide], which “turbidity threshold (L, M, H) 1.4” value is on record?
Answer: L (low solubility if the threshold concentration is <31.3 μM)

Question: And the “turbidity threshold (L, M, H) 4.5” value?
Answer: L (low solubility if the threshold concentration is <31.3 μM)

Question: What about the “turbidity threshold (L, M, H) 6.8” value of the same compound?
Answer: M (moderate solubility if the threshold concentration is 31.3 μM to 250 μM)

Question: And the “turbidity threshold (L, M, H) 7.4” value?
Answer: L (low solubility if the threshold concentration is <31.3 μM)

Question: Which results are given for `CCCS(=O)(=O)Nc1ccc(F)c(C(=O)c2c[nH]c3ncnc(NC(C)C)c23)c1F` [P-1051, Propane-1-sulfonic acid [2,4-difluoro-3-(4-isopropylamino-7H-pyrrolo[2,3-d]pyrimidine-5-carbonyl)-phenyl]-amide]?
Answer: turbidity threshold (L, M, H) 1.4: H (high solubility if the threshold concentration is >250 μm); turbidity threshold (L, M, H) 4.5: M (moderate solubility if the threshold concentration is 31.3 μM to 250 μM); turbidity threshold (L, M, H) 6.8: M (moderate solubility if the threshold concentration is 31.3 μM to 250 μM); turbidity threshold (L, M, H) 7.4: M (moderate solubility if the threshold concentration is 31.3 μM to 250 μM)

Question: Which results are given for `CCCS(=O)(=O)Nc1ccc(F)c(C(=O)c2c[nH]c3ncnc(NC4CCN(CC)CC4)c23)c1F` [P-1095, Propane-1-sulfonic acid {3-[4-(1-ethyl-piperidin-4-ylamino)-7H-pyrrolo[2,3-d]pyrimidine-5-carbonyl]-2,4-difluoro-phenyl}-amide]?
Answer: turbidity threshold (L, M, H) 1.4: H (high solubility if the threshold concentration is >250 μm); turbidity threshold (L, M, H) 4.5: H (high solubility if the threshold concentration is >250 μm); turbidity threshold (L, M, H) 6.8: H (high solubility if the threshold concentration is >250 μm); turbidity threshold (L, M, H) 7.4: H (high solubility if the threshold concentration is >250 μm)

Question: With `CCCS(=O)(=O)Nc1ccc(F)c(C(=O)c2c[nH]c3ncnc(NC4CC4)c23)c1F` [P-1041, Propane-1-sulfonic acid [3-(4-cyclopropylamino-7H-pyrrolo[2,3-d]pyrimidine-5-carbonyl)-2,4-difluoro-phenyl]-amide] as the compound, how does the “turbidity threshold (L, M, H) 1.4” value read?
Answer: H (high solubility if the threshold concentration is >250 μm)

Question: And the “turbidity threshold (L, M, H) 4.5” value?
Answer: M (moderate solubility if the threshold concentration is 31.3 μM to 250 μM)

Question: And the “turbidity threshold (L, M, H) 6.8” value?
Answer: M (moderate solubility if the threshold concentration is 31.3 μM to 250 μM)

Question: And the “turbidity threshold (L, M, H) 7.4” value?
Answer: M (moderate solubility if the threshold concentration is 31.3 μM to 250 μM)

Question: Which “turbidity threshold (L, M, H) 1.4” value does the source give for `Cc1nn(C)cc1Nc1ncnc2[nH]cc(C(=O)c3c(F)ccc(NS(=O)(=O)c4cc(F)ccc4F)c3F)c12` [P-1143, N-{3-[4-(1,3-Dimethyl-1H-pyrazol-4-ylamino)-7H-pyrrolo[2,3-d]pyrimidine-5-carbonyl]-2,4-difluoro-phenyl}-2,5-difluoro-benzenesulfonamide] here?
Answer: L (low solubility if the threshold concentration is <31.3 μM)

Question: What about the “turbidity threshold (L, M, H) 4.5” value of the same compound?
Answer: L (low solubility if the threshold concentration is <31.3 μM)

Question: And the “turbidity threshold (L, M, H) 6.8” value?
Answer: L (low solubility if the threshold concentration is <31.3 μM)

Question: And the “turbidity threshold (L, M, H) 7.4” value?
Answer: L (low solubility if the threshold concentration is <31.3 μM)

Question: What does the source list for `CCCS(=O)(=O)Nc1ccc(F)c(C(=O)c2c[nH]c3ncnc(Nc4cccc(Cl)c4)c23)c1F` [P-1084, Propane-1-sulfonic acid {3-[4-(3-chloro-phenylamino)-7H-pyrrolo[2,3-d]pyrimidine-5-carbonyl]-2,4-difluoro-phenyl}-amide]?
Answer: turbidity threshold (L, M, H) 1.4: M (moderate solubility if the threshold concentration is 31.3 μM to 250 μM); turbidity threshold (L, M, H) 4.5: M (moderate solubility if the threshold concentration is 31.3 μM to 250 μM); turbidity threshold (L, M, H) 6.8: M (moderate solubility if the threshold concentration is 31.3 μM to 250 μM); turbidity threshold (L, M, H) 7.4: M (moderate solubility if the threshold concentration is 31.3 μM to 250 μM)

Question: With `CCCS(=O)(=O)Nc1ccc(F)c(C(=O)c2c[nH]c3ncnc(CC(C)C)c23)c1F` [P-1014, Propane-1-sulfonic acid [2,4-difluoro-3-(4-isobutyl-7H-pyrrolo[2,3-d]pyrimidine-5-carbonyl)-phenyl]-amide] as the compound, how does the “turbidity threshold (L, M, H) 1.4” value read?
Answer: M (moderate solubility if the threshold concentration is 31.3 μM to 250 μM)

Question: What about the “turbidity threshold (L, M, H) 6.8” value of the same compound?
Answer: M (moderate solubility if the threshold concentration is 31.3 μM to 250 μM)

Question: And the “turbidity threshold (L, M, H) 7.4” value?
Answer: M (moderate solubility if the threshold concentration is 31.3 μM to 250 μM)
